In patent publication US12329760B2, “Methods and compositions for targeting retinoic acid for solid tumor immunotherapy” (THE TRUSTEES OF THE UNIVERSITY OF PENNSYLVANIA, priority 2019, dated 2025):

B1: IL4: Th2 cytokine (protein, UniProt P05112 25-153, looked up)
Interleukin-4: HKCDITLQEIIKTLNSLTEQKTLCTELTVTDIFAASKNTTEKETFCRAATVLRQFYSHHEKDTRCLGATAQQFHRHKQLIRFLKRLDRNLWGLAGLNSCPVKEANQSTLENFLERLKTIMREKYSKCSS

Tested on: MCAS cells
Assay: RALDH3 expression in treated MCAS cells by RT-QPCR
Format: cell-based, murine
Conditions: for RALDH3 expression (relative to 18S): MCAS cells treated in vitro with cytokine, vs no Tx
Protocol: FIGS. 16A-16C show 1L13 and RALDH expression. FIG. 16A: MCAS cells were treated in vitro with indicated agents and RALDH3 expression (relative to 18S) measured by RT-QPCR. P<0.05 between no Tx and IL4 or IL13. N=3, repeated >5 times. FIG. 16B: IL13 and IL13Rα1 staining in murine UPS. FIG. 16C: Single cell suspension from MCAS tumors were fractionated into CD45+(Leukocytes) and CD45-fraction using miltenyi magnetic columns. RT-QPCR based measurement (relative to 18S) of IL13 and IL13Rα1 transcripts were performed on fractionated cells. P<0.01 for IL13. N=3, experiment repeated twice.
FIG. 20A: MCAS cells were treated with indicated compounds and RALDH3 expression (relative to 18S) measured by RT-QPCR. P<0.01 for DMSO vs. IL13. P<0.05 for IL13 vs. IL13+BMS493. FIG. 20B: Schematic of RALDH3 regulation by RA.
Aldefluor positive and negative cells were purified from murine fibrosarcomas and were transplanted into syngeneic B6 mice. Tumors derived from both types of cells generated both aldefluor positive and negative cells. This indicated the existence of an environmental signal in the TME that induces RA production in tumor cells. Th2 cytokines such as IL4 and IL13 can promote the differentiation of monocytes into either immunostimulatory DCs or immunosuppressive TAMS. Therefore, it was reasoned that tumors might induce RA production in the presence of IL4 or IL13 to block DC and promote TAM differentiation. To test this, MCAS cell lines were treated with cytokines promoting macrophage and DC differentiation and measured the expression of RALDH enzymes. […] IL13 and its receptor IL13Rα1 were also detected in murine sarcomas by IHC (FIG. 16B).

| Molecule | potency of RALDH3 induction, IL13 compared with IL4 (MCAS cells in vitro) | RALDH3 expression (relative to 18S) |
| --- | --- | --- |
| IL13: Th2 cytokine | more potent | induced the expression of RALDH3 |
| B1 |  | induced the expression of RALDH3 |
